In a melting point compilation (Tetko et al.; mined from patent text by program, amines drawn as free bases though some values may be those of a salt) one finds melting point data, which are given here for 90 molecules.

Bounds are passed on as bounds.

On to `Cn1cncc1C(O)(c1ccc(Cl)cc1)c1ccc2c(c1)C(c1cccc(Cl)c1)SCC(=O)N2CC1CC1` (stereo not given), for which the melting point was 245 °C.

`CCOC(=O)c1c(N2CCN(C(=O)c3cccs3)CC2)c2cccnc2[nH]c1=O` gave a melting point of 239 °C.

Molecule `COC(OC)C(CC#N)C(C)(C)S(=O)(=O)c1ccc(C)cc1` (stereo not given) registered a melting point of 99 °C.

Consider `CON=Cc1ccc2c(c1)ncn2-c1cccc(-n2ccnc2)c1`, for which the melting point lay in the range of 197 to 199 °C.

For the molecule `CC1(C)CCC(C)(C)c2cc(N(Cc3ccc(F)cc3)C(=O)Nc3ccc(C(=O)O)cc3)ccc21`, the melting point lay in the range of 143 to 146 °C.

Molecule `CC1CN(c2ccc(Nc3cc(Br)cn(C)c3=O)nc2)C1` registered a melting point of 135 to 136 °C.

With `CCOC(=O)c1cnn(C)c1C(=O)Nc1ccn2nc(-c3cccc(F)c3)nc2c1`, the melting point lay within 246 to 249 °C.

In turn, `O=C(O)c1cn(CC2CC2)c2c(F)c(F)c(F)cc2c1=O` displayed a melting point of 223 to 255 °C.

Turning to `CCOC(=O)ON=C(N)c1cccc(Oc2ccc3c(c2)S(=O)(=O)N=C2CCCN23)c1`, the melting point was in the range of 101 to 105 °C.

Regarding `CCn1ccc(-c2ccc(C(=O)N3Cc4cccn4Cc4ccccc43)cc2)n1`, the melting point was 180 to 183 °C.

As to `COc1ccc(Cn2c(=O)c(C#N)c(Cl)c3cc(F)cnc32)cc1`, the melting point worked out at 195 °C.

Take `CN1CCC(O)(c2cccn2Cc2ccccc2F)CC1`: the melting point was 164 to 165 °C.

In the case of `Nc1ccccc1CN(N)c1ccc(Cl)cc1`, the melting point fell in the range of 83 to 87 °C.

The molecule `O=C(NCC(O)c1cccc(OCc2ccc3ccccc3n2)c1)c1ccccn1` (stereo not given) had a melting point of 126 to 129 °C.

On to `COc1nc(OC)c2cc(CBr)ccc2n1`, for which the melting point was 138 to 143 °C.

`CC(C)(C)C(=O)C(Oc1ccc(Cl)cc1)n1ncnc1S` (stereo not given) yielded a melting point of 134 to 136 °C.

As for `O=C(O)C(=Cc1cc(C(=O)O)c(=O)n2ccccc12)C(=O)O`, the melting point was more than 250 °C.

As for `CS(=O)(=O)c1ccc(-n2c(-c3ccc(F)cc3)nc(O)c(C#N)c2=O)cc1`, the melting point was more than 285 °C.

The molecule `O=C(O)Cn1cc(-c2ccc3nnn(Cc4ccc5ncccc5c4)c3n2)cn1` showed a melting point of more than 270 °C.

With `C#CCN(c1nnc(C)c2ccccc12)c1nc2ccccc2n1-c1ccccc1`, the melting point was 50 to 53 °C.

The molecule `O=C(O)C=Cc1cc([N+](=O)[O-])ccc1Br` yielded a melting point of 185 °C.

As for `NS(=O)(=O)c1cccc(N/C=C2\C(=O)Nc3ccccc32)c1`, the melting point is more than 250 °C.

The molecule `CCCc1nn(C)c2c1N=C(c1cc(CCC(=O)O)ccc1OCC)NC2` gave a melting point of 165 to 167 °C.

On to `COC(=O)c1ccc(Cc2c[nH]c3ccc(C=O)cc23)c(OC)c1`, for which the melting point was 117 to 120 °C.

For `CNc1cc2cnnn2c(C)n1`, the melting point was 162 to 164 °C.

The molecule `COc1cc(OC)c2c(=O)[nH]c(-c3cccc(-c4ccc(S(C)=O)cc4)c3)nc2c1` (stereo not given) came in with a melting point of more than 300 °C.

The molecule `COC(=O)COC(=O)COc1ccc(-c2coc3cc(OCC(=O)OCC(=O)OC)ccc3c2=O)cc1` had a melting point of 111 to 114 °C.

Consider `COC(=O)C1(C)CCc2c(C)c(O)c(C)c(C)c2O1` (stereo not given), for which the melting point lay in the range of 132 to 135 °C.

`COC1=C(OC)C(=O)C(CCCCCCCCCCO)=C(C)C1=O` came in with a melting point of 52 °C.

As for `CC(=O)c1ccc2c(c1)c1ccccc1n2CCCCl`, the melting point lay within 109 to 111 °C.

The molecule `c1ccc(OCc2ccc(OCc3ccc4ccccc4n3)cc2)cc1` yielded a melting point of 100 to 111 °C.

`[N-]=[N+]=NC(=O)C=Cc1cccc2[nH]ccc12` showed a melting point of 105 to 106 °C.

As to `Cc1cccc(C(Cl)=NNc2ccccc2)c1`, the melting point was in the range of 66 to 67 °C.

Consider `C1=C(COc2ccccc2)CCN(Cc2c[nH]c3ccccc23)C1`, for which the melting point fell in the range of 140 to 142 °C.

Molecule `C1=C(c2ccccc2)CCN(Cc2cncc(-c3ccccc3)c2)C1` had a melting point of 80 to 82 °C.

In turn, `O=S(=O)(NCCCCOc1ccc(-c2cc[nH]n2)cc1)c1ccc(Br)cc1` gave a melting point of 157 to 158 °C.

The molecule `COC(CN(C)C(=O)Nc1nnc(C(C)Oc2ccc(Cl)cc2)s1)OC` (stereo not given) had a melting point of 116 to 118 °C.

In turn, `O=c1c(NCc2cccc(O)c2)c(Nc2ccc(O)c(-c3ccccn3)c2)c1=O` displayed a melting point of 271 to 272 °C.

Turning to `CC(C)C1(C)NC(c2ccccc2C(=O)N(C)C)=NC1=O` (stereo not given), the melting point fell in the range of 144 to 146 °C.

Molecule `CN(C(=O)CN(C(=O)CNC(=O)Nc1cccc(/C=C/CO)c1)c1ccccc1)c1ccccc1` displayed a melting point of 85 °C.

On to `COc1ccc2c(c1)CCN1C(=O)[C@H]3CCCN(S(C)(=O)=O)[C@H]3C[C@@H]21`, for which the melting point lay within 138 to 140 °C.

As for `CCOC(=O)C1CCN(c2nc(COc3ccc(COc4nn(-c5ccccc5)cc4C=O)cc3OC)c(C)s2)CC1`, the melting point lay in the range of 126 to 127 °C.

Turning to `N#Cc1cc2c(nc1Cl)CCCCC2`, the melting point is 126 to 127 °C.

Take `O=C(O)c1ccc2c(c1)S(=O)(=O)c1ccccc1NC2`: the melting point is 304 to 306 °C.

On to `CC(C)(C)OC(=O)N1CCC[C@H](O)[C@H](NC(=O)c2ccc(OC(C)(C)C)cc2)C1`, for which the melting point stood at 132 °C.

In turn, `c1ccc(CSc2nc3cnccc3[nH]2)cc1` yielded a melting point of 175 to 177 °C.

Regarding `Cc1ccc(N(c2ccc(C)cc2)c2ccc(C(O)(CCCO)CCCO)cc2)cc1`, the melting point lay within 131 to 132 °C.

Turning to `O=c1ccc2ccc3ccc(Br)cc3c(=O)c2[nH]1`, the melting point lay in the range of 268 to 269 °C.

Take `Cn1c(C(F)(F)F)cc(=O)n(Nc2cccc(Cl)c2Cl)c1=O`: the melting point was found to be 179 °C.

`O=C(Nc1ccc(NS(=O)(=O)c2ccc(Cl)c(Cl)c2)cc1)Nc1ccc([N+](=O)[O-])cc1`: the melting point lay within 207 to 209 °C.

With `Cc1ncn(-c2nc(-c3ccc(Cl)cc3)c(CCC(=O)O)o2)c1C`, the melting point is 225 to 226 °C.

In turn, `C#CC1(O)CN2CCC1CC2` (stereo not given) showed a melting point of 199 to 202 °C.

For `CCOC(=O)COc1ccc(Oc2nc(Cl)cc3ccccc23)cc1`, the melting point stood at 97 °C.

With `Cc1cn(C(C)(C(=O)N(C)C)c2ccccc2)nc1-c1ccccc1` (stereo not given), the melting point is 107 to 109 °C.

The molecule `NC(=O)N(O)CC#Cc1ccc(F)c(C2=N[C@H](c3ccccc3)CO2)c1` had a melting point of 173 to 174 °C.

`Cc1nc(N)nc(N)c1CCCc1ccccc1C(F)(F)F` gave a melting point of 151 to 158 °C.

Molecule `CN1C(=S)NN2CCCC21c1ccccc1` (stereo not given) gave a melting point of 148 to 151 °C.

Regarding `CC1(C)SC2CC(=O)N2C1C#N` (stereo not given), the melting point fell in the range of 73 to 75 °C.

`COc1ccc(N2C(=O)C(=O)N(c3ccccc3)C2=O)cc1` came in with a melting point of 129 to 131 °C.

The molecule `CCCCOc1nc(NC(C)=O)nc2ccc(Cl)nc12` showed a melting point of 158 to 159 °C.

The molecule `CCOC(=O)C1=C(C)NC(C)=C(C(=O)OCC)C1c1ccc(Cl)cc1Cl` showed a melting point of 148 to 149 °C.

In turn, `COc1ccc(C2(CC(=O)O)CNC(=O)C2)cc1` (stereo not given) displayed a melting point of 172 to 175 °C.

`CCOC(=O)C1=Cc2c(F)cccc2OC1C(F)(F)F` (stereo not given) came in with a melting point of 45.5 to 47 °C.

Turning to `CCOC(=O)c1c(=O)c2c(F)c(F)c(F)c(F)c2n2ccccc12`, the melting point lay in the range of 198 to 200 °C.

`C/C(=N\O)c1cccc(Nc2c3ccccc3nc3occc23)c1`: the melting point was 248 to 249 °C.

As for `COc1ccccc1N1CCN(CC2(C)N=C(c3cccnc3)NC2=O)CC1` (stereo not given), the melting point was 159 to 162 °C.

Regarding `CC#CCOc1ccc(S(=O)(=O)NC(CO)C(=O)OC)cc1` (stereo not given), the melting point was 72 to 74 °C.

For `O[C@H](COc1cccc2[nH]ccc12)CN1CC=C(c2c[nH]c3c(Cl)cccc23)CC1`, the melting point is 85 to 90 °C.

`CC(C)n1nc(-c2cc(C(=O)NCc3ccccc3)cnc2-c2ccccc2)ccc1=O` came in with a melting point of 205 to 206 °C.

`COC(=O)C1Cc2cncn2C(=O)N1` (stereo not given) had a melting point of 159 to 164 °C.

`CN1CCN(c2ccc(NC(=O)c3cc4ccccc4s3)cc2C#N)CC1` registered a melting point of 263 to 264 °C.

Take `O=[N+]([O-])c1ccc(Cc2cccnc2)cc1`: the melting point fell in the range of 87 to 88 °C.

With `NS(=O)(=O)Cc1cccc(NC(=O)c2cnn3c(C(F)F)cc(-c4ccc(C(F)(F)F)cc4)nc23)c1`, the melting point was 280 °C.

Molecule `C[Si](C)(C)c1cccc(C[C@@H]2N[C@@H](c3ccccc3)[C@@H](c3ccccc3)OC2=O)c1` gave a melting point of 94 to 95 °C.

`Cc1ccccc1CC1=NNC(=O)CC1` showed a melting point of 123 to 125 °C.

In turn, `CCCCCCCCCC(=O)Oc1ccc(N(CC(=O)O)CC(=O)O)cc1OC(=O)CCCCCCCCC` returned a melting point of 131 to 133 °C.

The molecule `CCOC(=O)/C=C/c1nc(COc2ccc(CO)cc2OC)c(C)o1` came in with a melting point of 96 to 97 °C.

The molecule `COc1ccc(OC)c(NC(=O)NCC2(c3ccccc3)CCCCC2)c1` showed a melting point of 164 to 166 °C.

Turning to `Cc1c2n(c(=O)c3c(O)cccc13)CCCS2`, the melting point lay in the range of 110 to 112 °C.

With `NC(=O)NCc1c[nH]c(=S)n1[C@H]1CCc2c(F)cc(F)cc2C1`, the melting point lay within 258 to 260 °C.

Consider `CC(C)CC(=O)c1cn(C)cc(-c2cccc(C(F)(F)F)c2)c1=O`, for which the melting point fell in the range of 110 to 112 °C.

On to `COc1cc(C(C)(C)CNC(=O)c2ccccc2)cc2c1OC(C)(C)C2`, for which the melting point is 109 to 110 °C.

As to `Nc1ncccc1OCc1ccccc1F`, the melting point is 85 to 86 °C.

In turn, `Cc1cc(N)nc(CCc2nc3cc(-c4ccc(C#N)cc4)cnc3[nH]2)c1` registered a melting point of 218 °C.

In turn, `CCOC(=O)c1ccccc1NC(=O)CN1C(=O)c2ccccc2C1=O` gave a melting point of 187 °C.

`CC(C)(NC(=O)c1nc2ccc(NCCCN3CCC(OC(c4ccccc4)c4ccccc4)CC3)nn2n1)C(=O)O`: the melting point was 247 to 249 °C.

Molecule `Cc1cc(C)nc(NC(=O)c2ccncc2)c1` had a melting point of 142 °C.

`Cc1c(-c2ccccc2)c(=O)[nH]c2ccccc12` displayed a melting point of 266 to 268 °C.

As for `N#CCN1CCC(NC(=O)c2cc(Cl)c(N)c3c2OCCC3)CC1`, the melting point turned out to be 194 °C.

The molecule `COc1ccc(C=CC(=O)O)cc1-c1cc2c(cc1OCCCCCCCC(=O)OC(C)(C)C)C(C)(C)CCC2(C)C` had a melting point of 126 to 128 °C.

By melting point is commonly meant the temperature of the solid-liquid transition.
